Experiments:
[1] = test system: FGF-2-induced NHDF (Normal Human Dermal Fibroblast) cell proliferation; test: FGF-2-induced NHDF proliferation assay; format: cell-based; conditions: compound 0.1 to 30 μM
Method: The activities of the compounds of the present invention were tested using a proliferation assay, such as the one described by N. Ali et al., J Pharmacol Sci, 2005, 98, 130-141. A defined number of cells is seeded in each well of a culture plate. In order to stimulate cell proliferation, a growth factor is added in some wells, while others remain unstimulated (basal proliferation conditions). To monitor the effects of substances of interest (oligosaccharides compounds according to the present invention) on basal and growth factor-induced cell proliferation, substances of interest are added at different concentrations (i.e. 0.1, 0.3, 1, 3, 10 or 30 μM) in presence or absence of the growth factor, respectively. After an incubation period of 24 hours, the total number of cells is estimated in all samples (generally through an indirect method, such as incorporation of radioactivity into the newly synthesised DNA or colorimetric assays based on cellular enzyme activities or metabolite production). The total number of cells for the control sample in which no substance of interest nor growth factor have been added is set to 1. The total number of cells in all the other samples is compared to this value in order to obtain the relative proliferation index.
Typically, cells are seeded in 48 or 96-well plates. After 2 h (i.e. the time required for cells to adhere to the support) the normal culture media is replaced by a minimal essential culture media in which cells are grown for 24 h (starvation period). This step is used to reduce cell growth (cell metabolism is slowed down in order to better visualise the growth factor stimulation effect) before adding an angiogenic protein, such as a growth factor i.e. FGF-2 or PDGF-β. No growth factor is added in basal proliferation conditions (independently of the presence or absence of the oligosaccharide of the present invention). […]
Following addition of the angiogenic protein (growth factor) over a 24 h stimulation period, a commercial reagent containing a substrate for a cellular enzyme is added and incubated for couple of hours. The degradation of the substrate by the enzyme leads to the production of a coloured product which is titrated by absorbance measurement. […]
In the following experiments the effects of compounds 240 and 241 (concentrations from 0.1 to 30 μM) were evaluated on FGF-2-induced NHDF (Normal Human Dermal Fibroblast) cell proliferation. […]

[2] = test system: hematopoietic stem cells (LSK cells) in blood; test: Hematopoietic stem cell mobilisation, sequential G-CSF, AMD3100 and compound 240; format: in vivo; conditions: compound 240 i.v. 15 mg/kg 30 min after AMD3100 s.c. 5 mg/kg, after G-CSF 2.5 μg s.c.; C57BL/6 mice; FIG. 5
Method: During cancer treatment, patients receive injections of a cytokine (G-CSF) mobilising stem cells. These stem cells are then collected from the peripheral blood using an apheresis machine. Apheresis is usually performed for several days until enough stem cells have been collected to support treatment with high-dose chemotherapy and/or radiotherapy. In the experiments of the present invention, different doses (5, 15 and 30 mg/kg body weight (bw)) and administration routes (intraperitoneal, intravenous and subcutaneous) were tested along time course experiments in mice (30 min, 1 h, 3 h and 5 h).
C57BL/6 mice (8-10 weeks old, obtained from Jackson Laboratory, USA) were housed 15 days in the CEA/DSV/iRCM animal facilities. Animal care was in accordance with French Government procedures (Services Veterinaires de la Sante et de la Production Animale, Ministere de l'Agriculture, France).
i) intravenously: Anesthetized mice were placed on their left side. Injection of 100 μl of compound was performed with insulin syringe into the retro-orbital sinus of the right eye of mice. […]
Two months aged-C57BL/6 mice were injected s.c. with 2.5 μg of G-CSF twice a day for 2 days. […] White blood cells were counted and labeled with lineage-PE-Cy7 (L), Sca-PE (S), and cKit-APC (K) antibodies for data acquisition by cytometry. […]

`C#CCCCOC1OC(COS(=O)(=O)[O-])C(OC2OC(C(=O)[O-])C(OC3OC(COS(=O)(=O)[O-])C(OC4OC(C(=O)[O-])C(OC5OC(COS(=O)(=O)[O-])C(OC6OC(C(=O)[O-])C(OC7OC(COS(=O)(=O)[O-])C(OC8OC(C(=O)[O-])C(OCc9ccccc9)C(OCc9ccccc9)C8OS(=O)(=O)[O-])C(OCc8ccccc8)C7NS(=O)(=O)[O-])C(OCc7ccccc7)C6OS(=O)(=O)[O-])C(OCc6ccccc6)C5NS(=O)(=O)[O-])C(OCc5ccccc5)C4OS(=O)(=O)[O-])C(OCc4ccccc4)C3NS(=O)(=O)[O-])C(OCc3ccccc3)C2OS(=O)(=O)[O-])C(OCc2ccccc2)C1NS(=O)(=O)[O-].[Na+].[Na+].[Na+].[Na+].[Na+].[Na+].[Na+].[Na+].[Na+].[Na+].[Na+].[Na+].[Na+].[Na+].[Na+].[Na+]` (stereo not drawn) [Compound 240] was tested, and the “inhibition of FGF-2-induced fibroblast proliferation” value ([1]; FGF-2 5 ng/ml, FIGS. 6-7) was “inhibit FGF-2-induced fibroblast proliferation (starting in the micromolar range)”, the “basal NHDF proliferation” value ([1]; control conditions, no growth factor) was “did not seem to be affected” and the “HSCs mobilized, times more than with G-CSF+AMD3100 combination” value [2] was “About 3 times”.

Reference: patent US20110166078A1, “OLIGOSACCHARIDE COMPOUNDS FOR USE IN MOBILISING STEM CELLS” (ENDOTIS PHARMA, priority 2008, published 2011)
